Measurements reported in PubChem BioAssay AID1918947 (Molecular Pharmacology Branch, DTP, NCI, 2023).
Where “and” joins values, the source holds several entries; their conditions need not be identical. Equal values may be shown once.

Test system: A498 complex spheroid viability
Assay: Anticancer human tumor A498 cell line growth inhibition;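 also: spheroids exposed to agents for seven days before readout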;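 as to viability, T/C: 100% = DMSO vehicle-treated spheroids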
Conditions: for viability, T/C: stronger effect = lower value
In short: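 Complex spheroids of tumor cells with HUVEC and human MSCs, exposed to iadademstat combined with other agents. Each agent tested in half-log steps from near clinical Cmax (else 10 microM top), DMSO ≤0.25%.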

[1] = curve of first compound, second compound 0.1 µM
[2] = curve of first compound, second compound 0.316 µM
[3] = curve of first compound, second compound 1 µM
[4] = curve of first compound, second compound 3.16 µM
[5] = curve of first compound, second compound 10 µM
[6] = second compound 0.1 µM, first compound 0.00316 µM
[7] = second compound 0.1 µM, first compound 0.01 µM
[8] = second compound 0.1 µM, first compound 0.0316 µM
[9] = second compound 0.1 µM, first compound 0.1 µM
[10] = second compound 0.1 µM, first compound 0.316 µM
[11] = second compound 0.1 µM, first compound 1 µM
[12] = second compound 0.316 µM, first compound 0.00316 µM
[13] = second compound 0.316 µM, first compound 0.01 µM
[14] = second compound 0.316 µM, first compound 0.0316 µM
[15] = second compound 0.316 µM, first compound 0.1 µM
[16] = second compound 0.316 µM, first compound 0.316 µM
[17] = second compound 0.316 µM, first compound 1 µM
[18] = second compound 1 µM, first compound 0.00316 µM
[19] = second compound 1 µM, first compound 0.01 µM
[20] = second compound 1 µM, first compound 0.0316 µM
[21] = second compound 1 µM, first compound 0.1 µM
[22] = second compound 1 µM, first compound 0.316 µM
[23] = second compound 1 µM, first compound 1 µM
[24] = second compound 3.16 µM, first compound 0.00316 µM
[25] = second compound 3.16 µM, first compound 0.01 µM
[26] = second compound 3.16 µM, first compound 0.0316 µM
[27] = second compound 3.16 µM, first compound 0.1 µM
[28] = second compound 3.16 µM, first compound 0.316 µM
[29] = second compound 3.16 µM, first compound 1 µM
[30] = second compound 10 µM, first compound 0.00316 µM
[31] = second compound 10 µM, first compound 0.01 µM
[32] = second compound 10 µM, first compound 0.0316 µM
[33] = second compound 10 µM, first compound 0.1 µM
[34] = second compound 10 µM, first compound 0.316 µM
[35] = second compound 10 µM, first compound 1 µM

Row | Structure (SMILES) | IC50 [1] | IC50 [2] | IC50 [3] | IC50 [4] | IC50 [5] | viability, T/C [6] | viability, T/C [7] | viability, T/C [8] | viability, T/C [9] | viability, T/C [10] | viability, T/C [11] | viability, T/C [12] | viability, T/C [14] | viability, T/C [15] | viability, T/C [20] | viability, T/C [21] | viability, T/C [26] | viability, T/C [27] | viability, T/C [32] | viability, T/C [33] | other results
1 | COc1cc(Nc2ncc3c(n2)-c2ccc(Cl)cc2C(c2c(F)cccc2OC)=NC3)ccc1C(=O)O + NC1CC1c1ccc(-c2cccc(O)c2)cc1 | 185 nM | 282 nM | 80.6 nM | 34.6 nM | 65.4 nM | 76.7% | 65.5% | 58.5% | 54% | 49.4% | 41% | 85.2% | 66.9% | 56% | 58% | 48.2% | 52.6% | 46.4% | 54.1% | 50.8% | viability, T/C [13]: 72.3%; viability, T/C [16]: 52.1%; viability, T/C [17]: 39.9%; viability, T/C [18]: 78.7%; viability, T/C [19]: 60.7%; viability, T/C [22]: 44.8%; viability, T/C [23]: 34.6%; viability, T/C [24]: 71.1%; viability, T/C [25]: 53.8%; viability, T/C [28]: 42.2%; viability, T/C [29]: 36.9%; viability, T/C [30]: 76.6%; viability, T/C [31]: 59.3%; viability, T/C [34]: 40.1%; viability, T/C [35]: 31.6%
2 | Nc1ccn(C2OC(CO)C(O)C2(F)F)c(=O)n1 (centres undefined) | – | – | – | – | – | – | – | – | – | – | – | – | – | – | – | – | – | – | – | – | viability, T/C (compound 0.000949 µM): 22.8% and 20%; viability, T/C (compound 0.003 µM): 29.2% and 27.8%; viability, T/C (compound 0.00949 µM): 43.3% and 107%; viability, T/C (compound 0.03 µM): 36.6% and 35.1%; viability, T/C (compound 0.0949 µM): 37% and 34%; viability, T/C (compound 0.3 µM): 27.9% and 29.2%; IC50 (curve of compound): < 0.949 nM
3 | O=C(c1cc(Cc2n[nH]c(=O)c3ccccc23)ccc1F)N1CCN(C(=O)C2CC2)CC1 + NC1CC1c1ccc(-c2cccc(O)c2)cc1 | > 10000 nM | > 10000 nM | > 10000 nM | > 10000 nM | > 10000 nM | – | – | 107% | 111% | 105% | 105% | – | 109% | 113% | 107% | 110% | 101% | 105% | 102% | 105% | viability, T/C (second compound 0.1 µM, first compound 3.16 µM): 107%; viability, T/C (second compound 0.1 µM, first compound 10 µM): 91.5%; viability, T/C [16]: 111%; viability, T/C [17]: 108%; viability, T/C (second compound 0.316 µM, first compound 3.16 µM): 102%; viability, T/C (second compound 0.316 µM, first compound 10 µM): 97.8%; viability, T/C [22]: 105%; viability, T/C [23]: 99.1%; viability, T/C (second compound 1 µM, first compound 3.16 µM): 97.6%; viability, T/C (second compound 1 µM, first compound 10 µM): 96%; viability, T/C [28]: 104%; viability, T/C [29]: 103%; viability, T/C (second compound 3.16 µM, first compound 3.16 µM): 95.2%; viability, T/C (second compound 3.16 µM, first compound 10 µM): 91%; viability, T/C [34]: 107%; viability, T/C [35]: 101%; viability, T/C (second compound 10 µM, first compound 3.16 µM): 102%; viability, T/C (second compound 10 µM, first compound 10 µM): 88.4%
4 | Nc1ncn(C2CC(O)C(CO)O2)c(=O)n1 (centres undefined) | – | – | – | – | – | – | – | – | – | – | – | – | – | – | – | – | – | – | – | – | viability, T/C (compound 0.00316 µM): 104% and 103%; viability, T/C (compound 0.01 µM): 103% and 107%; viability, T/C (compound 0.0316 µM): 97.1% and 92.8%; viability, T/C (compound 0.1 µM): 84.8% and 88.6%; viability, T/C (compound 0.316 µM): 68.6% and 82.9%; viability, T/C (compound 1 µM): 52.9% and 73.7%; IC50 (curve of compound): > 1000 nM
5 | CC1COCCN1c1cc(-c2ccnn2C)c2ccnc(-c3ccn[nH]3)c2n1 (centres undefined) + NC1CC1c1ccc(-c2cccc(O)c2)cc1 | 30.9 nM | 29.8 nM | 36.8 nM | 28.4 nM | 31.5 nM | 104% | 88.1% | 48.2% | 23.6% | 16.9% | 11.8% | 108% | 45.8% | 25.3% | 55.5% | 22.8% | 45.8% | 23.3% | 49% | 24.8% | viability, T/C [13]: 94%; viability, T/C [16]: 18.1%; viability, T/C [17]: 13%; viability, T/C [18]: 105%; viability, T/C [19]: 87%; viability, T/C [22]: 17.7%; viability, T/C [23]: 12.3%; viability, T/C [24]: 109%; viability, T/C [25]: 85.5%; viability, T/C [28]: 15.6%; viability, T/C [29]: 12.9%; viability, T/C [30]: 91.9%; viability, T/C [31]: 80.3%; viability, T/C [34]: 16.3%; viability, T/C [35]: 11.4%
6 | CC1COCCN1c1cc(-c2ccnn2C)c2ccnc(-c3ccn[nH]3)c2n1 (centres undefined) + NC1CCC(NC2CC2c2ccccc2)CC1 | 21.9 nM | 24.7 nM | 24.5 nM | 22.8 nM | 14.1 nM | 83.9% | 76.2% | 37.5% | 16.3% | 14% | 9.97% | 89.7% | 41.3% | 19.1% | 42.8% | 19.3% | 41.4% | 19.4% | 30.7% | 22.7% | viability, T/C [13]: 79.6%; viability, T/C [16]: 14.3%; viability, T/C [17]: 10.5%; viability, T/C [18]: 84.8%; viability, T/C [19]: 74.4%; viability, T/C [22]: 15%; viability, T/C [23]: 9.26%; viability, T/C [24]: 81.5%; viability, T/C [25]: 71.2%; viability, T/C [28]: 14.8%; viability, T/C [29]: 9.59%; viability, T/C [30]: 71.5%; viability, T/C [31]: 58.9%; viability, T/C [34]: 13.9%; viability, T/C [35]: 9.55%
7 | Nc1ncn(C2CC(O)C(CO)O2)c(=O)n1 (centres undefined) + NC1CC1c1ccc(-c2cccc(O)c2)cc1 | > 1000 nM | > 1000 nM | > 1000 nM | > 1000 nM | > 1000 nM | 110% | 113% | 104% | 94.5% | 92.3% | 78.6% | 118% | 107% | 97.1% | 110% | 95.7% | 110% | 95.4% | 105% | 101% | viability, T/C [13]: 120%; viability, T/C [16]: 93.1%; viability, T/C [17]: 68.5%; viability, T/C [18]: 113%; viability, T/C [19]: 114%; viability, T/C [22]: 86.1%; viability, T/C [23]: 67.3%; viability, T/C [24]: 112%; viability, T/C [25]: 114%; viability, T/C [28]: 75.6%; viability, T/C [29]: 63.2%; viability, T/C [30]: 107%; viability, T/C [31]: 100%; viability, T/C [34]: 80.2%; viability, T/C [35]: 60.4%
8 | Cn1ncnc1C1c2n[nH]c(=O)c3cc(F)cc(c23)NC1c1ccc(F)cc1 (centres undefined) + NC1CCC(NC2CC2c2ccccc2)CC1 | > 100 nM | > 100 nM | > 100 nM | > 100 nM | > 100 nM | 82.7% | 87.4% | 85.1% | 85.3% | – | – | 95% | 85.7% | 90.9% | 78.5% | 81.3% | 79.6% | 74.9% | 75.8% | 65.3% | viability, T/C (second compound 0.1 µM, first compound 0.000316 µM): 84%; viability, T/C (second compound 0.1 µM, first compound 0.001 µM): 88.1%; viability, T/C (second compound 0.316 µM, first compound 0.000316 µM): 95.5%; viability, T/C (second compound 0.316 µM, first compound 0.001 µM): 95.5%; viability, T/C [13]: 89%; viability, T/C (second compound 1 µM, first compound 0.000316 µM): 84.2%; viability, T/C (second compound 1 µM, first compound 0.001 µM): 94.5%; viability, T/C [18]: 87%; viability, T/C [19]: 84.2%; viability, T/C (second compound 3.16 µM, first compound 0.000316 µM): 83.8%; viability, T/C (second compound 3.16 µM, first compound 0.001 µM): 85.3%; viability, T/C [24]: 85.3%; viability, T/C [25]: 78.5%; viability, T/C (second compound 10 µM, first compound 0.000316 µM): 77.2%; viability, T/C (second compound 10 µM, first compound 0.001 µM): 76.8%; viability, T/C [30]: 78.2%; viability, T/C [31]: 74.9%
